The values that follow are results of earlier work, collected in patent US20080176830A1, “Compounds, Compositions, and Methods” (priority 2005, published 2008).

The data set deals with A549 cells. The following applies: data provided by National Cancer Institute.
Consider `O=c1[nH]cc(F)c(=O)[nH]1` [5-fluorouracil], for which the concentration for 50% growth inhibition (GI50) (commonly the concentration giving 50% growth inhibition) was 1000 nM.
Take `COc1cccc2c1C(=O)c1c(O)c3c(c(O)c1C2=O)C[C@@](O)(C(=O)CO)C[C@@H]3O[C@H]1C[C@H](N)[C@H](O)[C@H](C)O1` [doxorubicin]: the GI50 is 63 nM.
As for `NC(=O)NO` [hydroxyurea], the GI50 was 500000 nM.
`CC(=O)O[C@H]1C(=O)[C@@]2(C)[C@H]([C@H](OC(=O)c3ccccc3)[C@]3(O)C[C@H](OC(=O)[C@H](O)[C@@H](NC(=O)c4ccccc4)c4ccccc4)C(C)=C1C3(C)C)[C@]1(OC(C)=O)CO[C@@H]1C[C@@H]2O` [paclitaxel]: the GI50 is 4 nM.
